Measurements published in US20230087118A1, “IMIDAZO[1,2-a][sequence] DERIVATIVES AND THEIR USE IN THE TREATMENT OF DISEASE” (priority 2019, published 2023).
Where a name gives a salt, the structure may show the parent alone.

These molecules were tested against T1, IRAK4 (Homo sapiens, UniProt Q9NWZ3) (assay: biochemical). Details: not given.
T1 sequence (Q9NWZ3 1-460): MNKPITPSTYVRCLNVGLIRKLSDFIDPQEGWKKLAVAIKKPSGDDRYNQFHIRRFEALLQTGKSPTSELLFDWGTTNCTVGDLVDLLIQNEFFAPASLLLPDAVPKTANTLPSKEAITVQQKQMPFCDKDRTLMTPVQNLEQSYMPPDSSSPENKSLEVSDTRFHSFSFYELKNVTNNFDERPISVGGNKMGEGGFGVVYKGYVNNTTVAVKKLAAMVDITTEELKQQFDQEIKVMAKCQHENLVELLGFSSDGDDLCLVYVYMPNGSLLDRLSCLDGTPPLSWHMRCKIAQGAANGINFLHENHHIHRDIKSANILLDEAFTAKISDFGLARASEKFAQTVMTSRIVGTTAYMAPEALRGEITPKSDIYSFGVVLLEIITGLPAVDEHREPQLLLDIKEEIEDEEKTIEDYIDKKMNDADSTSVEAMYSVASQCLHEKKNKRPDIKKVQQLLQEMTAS
In the case of Cn1ccc(NC(=O)c2cn3cc(C45CCC(C)(C4)OC5)nc3cc2OC2CC2)n1 (stereo not shown) [Example 552], the IC50 is reported as 0.0097 µM. With CC12CC(c3cn4cc(C(=O)Nc5cccn(C(F)F)c5=O)c(OCCF)cc4n3)(CO1)C2 [Example 438, N-(1-(difluoromethyl)-2-oxo-1,2-dihydropyridin-3-yl)-7-(2-fluoroethoxy)-2-(1-methyl-2-oxabicyclo[2.1.1]hexan-4-yl)imidazo[1,2-a]pyridine-6-carboxamide] the IC50 was 0.0015 µM. COc1cc2nc(C3CCOCC3)cn2cc1C(=O)Nc1cccc(F)c1F [Example 113] showed an IC50 of 0.0357 µM. Molecule CC(C)Oc1nc2nc(C34COC(C)(C3)C4)cn2cc1C(=O)Nc1nc(C(F)(F)F)cs1 [Example 397, 7-Isopropoxy-2-(1-methyl-2-oxabicyclo[2.1.1]hexan-4-yl)-N-(4-(trifluoromethyl)thiazol-2-yl)imidazo[1,2-a]pyrimidine-6-carboxamide] has an IC50 of 0.0134 µM. CC(C)Oc1cc2nc(C34COC(C)(C3)C4)cn2cc1C(=O)Nc1cnn2ccc(Cl)nc12 [Example 264, N-(5-chloropyrazolo[1,5-a]pyrimidin-3-yl)-7-isopropoxy-2-(1-methyl-2-oxabicyclo[2.1.1]hexan-4-yl)imidazo[1,2-a]pyridine-6-carboxamide] gave an IC50 of 0.0002 µM. CC12CC(c3cn4cc(C(=O)Nc5cccc(C(F)F)n5)nc(OC5CCC5)c4n3)(CO1)C2 [Example 345, 8-Cyclobutoxy-N-(6-(difluoromethyl)pyridin-2-yl)-2-(1-methyl-2-oxabicyclo[2.1.1]hexan-4-yl)imidazo[1,2-a]pyrazine-6-carboxamide] was tested, and the IC50 was 0.0022 µM. Molecule Cn1ccc(NC(=O)c2cn3cc([C@@]45CC[C@@](C)(C4)OC5)nc3cc2OC2CCCC2)n1 (single isomer, unassigned) [Example 634] has an IC50 of 0.0023 µM. In the case of COc1nc(C(=O)Nc2cccc3c2CCC3)cn2cc(C3CCOCC3)nc12 [Example 210], the IC50 is reported as 0.302 µM. For CC(C)Oc1nc2nc(C34CC(C)(C3)OC4(C)C)cn2cc1C(=O)Nc1cnn2cc(F)cnc12 [Example 310, N-(6-fluoropyrazolo[1,5-a]pyrimidin-3-yl)-7-isopropoxy-2-(1,3,3-trimethyl-2-oxabicyclo[2.1.1]hexan-4-yl)imidazo[1,2-a]pyrimidine-6-carboxamide], the IC50 was 0.001 µM. For COc1ncccc1NC(=O)c1cn2cc([C@@]34CC[C@@](C)(C3)OC4)nc2nc1OC(C)C (single isomer, unassigned) [Example 578], the IC50 was 0.0002 µM. CC(C)Oc1nc2nc(C34COC(CF)(C3)C4)cn2cc1C(=O)Nc1cccc(C(F)F)n1 [Example 564, N-(6-(difluoromethyl)pyridin-2-yl)-2-(1-(fluoromethyl)-2-oxabicyclo[2.1.1]hexan-4-yl)-7-isopropoxyimidazo[1,2-a]pyrimidine-6-carboxamide] was tested, and the IC50 was 0.0003 µM. For CC12CC(c3cn4cc(C(=O)Nc5ccn(C(F)(F)F)n5)c(OC5CCC5)cc4n3)(CO1)C2 [Example 521, 7-Cyclobutoxy-2-(1-methyl-2-oxabicyclo[2.1.1]hexan-4-yl)-N-(1-(trifluoromethyl)-1H-pyrazol-3-yl)imidazo[1,2-a]pyridine-6-carboxamide], the IC50 was 0.0118 µM. With CC(C)Oc1nc2nc(C34COC(CF)(C3)C4)cn2cc1C(=O)Nc1cnn2cccnc12 [Example 563, 2-(1-(Fluoromethyl)-2-oxabicyclo[2.1.1]hexan-4-yl)-7-isopropoxy-N-(pyrazolo[1,5-a]pyrimidin-3-yl)imidazo[1,2-a]pyrimidine-6-carboxamide] the IC50 was 0.0005 µM. CC(C)Oc1cc2nc(C34COC(C)(C3)C4)c(F)n2cc1C(=O)Nc1cccc2ncnn12 [Example 329, N-([1,2,4]triazolo[1,5-a]pyridin-5-yl)-3-fluoro-7-isopropoxy-2-(1-methyl-2-oxabicyclo[2.1.1]hexan-4-yl)imidazo[1,2-a]pyridine-6-carboxamide trifluoroactate] gave an IC50 of 0.0012 µM. CC(C)Oc1nc2nc([C@]34CC[C@](C)(C3)OC4)cn2cc1C(=O)Nc1cccc(C(F)F)n1 (single isomer, unassigned) [Example 577] gave an IC50 of 0.0002 µM. Molecule CC(C)Oc1nc(C(=O)Nc2cccn(C)c2=O)cn2cc(C34CCC(C)(C3)OC4)nc12 (stereo not shown) [Example 341, 8-Isopropoxy-N-(1-methyl-2-oxo-1,2-dihydropyridin-3-yl)-2-(1-methyl-2-oxabicyclo[2.2.1]heptan-4-yl)imidazo[1,2-a]pyrazine-6-carboxamide] has an IC50 of 0.0009 µM. In the case of CC(C)Oc1cc2nc(C34COC(C)(C3)C4)cn2cc1C(=O)Nc1cccc2ccnn12 [Example 221], the IC50 is reported as 0.0006 µM. With COc1ncccc1NC(=O)c1cn2cc(C34CCC(C)(C3)OC4)nc2c(OC(C)C)n1 (stereo not shown) [Example 239] the IC50 was 0.0008 µM. CC(C)Oc1nc(C(=O)Nc2cccc(C(F)F)n2)cn2cc(C34COC(CF)(C3)C4)nc12 [Example 338, N-(6-(difluoromethyl)pyridin-2-yl)-2-(1-(fluoromethyl)-2-oxabicyclo[2.1.1]hexan-4-yl)-8-isopropoxyimidazo[1,2-a]pyrazine-6-carboxamide] was tested, and the IC50 was 0.0105 µM. Work on CC(C)Oc1cc2nc(C34CCC(C)(C3)OC4)cn2cc1C(=O)Nc1cccc(C(F)F)n1 (stereo not shown) [Example 243] yielded an IC50 of 0.0002 µM. CC(C)Oc1cc2nc(C34COC(C)(C3)C4)cn2cc1C(=O)Nc1cncc2cccnc12 [Example 320, 7-Isopropoxy-2-(1-methyl-2-oxabicyclo[2.1.1]hexan-4-yl)-N-(1,6-naphthyridin-8-yl)imidazo[1,2-a]pyridine-6-carboxamide] showed an IC50 of 0.0004 µM. For CC(C)Oc1cc2nc(C3CC3)cn2cc1C(=O)Nc1cccc(OCC(F)F)n1 [Example 482, 2-Cyclopropyl-N-(6-(2,2-difluoroethoxy)pyridin-2-yl)-7-isopropoxyimidazo[1,2-a]pyridine-6-carboxamide], the IC50 was 0.0067 µM. CCn1cccc(NC(=O)c2cn3cc(C4CC4)nc3cc2OC(C)C)c1=O [Example 480, 2-Cyclopropyl-N-(1-ethyl-2-oxo-1,2-dihydropyridin-3-yl)-7-isopropoxyimidazo[1,2-a]pyridine-6-carboxamide] gave an IC50 of 0.0075 µM. For CC(C)Oc1cc2nccn2cc1C(=O)Nc1cccc(C(F)F)n1 [Example 220], the IC50 was 0.0115 µM. Cc1cnc2c(NC(=O)c3cn4cc(C56CCC(C)(C5)OC6)nc4nc3OC(C)C)cnn2c1 (stereo not shown) [Example 569, 7-Isopropoxy-2-(1-methyl-2-oxabicyclo[2.2.1]heptan-4-yl)-N-(6-methylpyrazolo[1,5-a]pyrimidin-3-yl)imidazo[1,2-a]pyrimidine-6-carboxamide] gave an IC50 of 0.0024 µM. With COc1cc2nc(C3CCOCC3)cn2cc1C(=O)Nc1ccn(CC2CC2)n1 [Example 184] the IC50 was 0.208 µM. CCOc1nc(C(=O)Nc2cccc(C(F)F)n2)cn2cc([C@]34CC[C@](C)(C3)OC4)nc12 (single isomer, unassigned) [Example 600] gave an IC50 of 0.0012 µM. CC12CC(c3cn4cc(C(=O)Nc5cnn6cccnc56)c(OC5CCC5)cc4n3)(CO1)C2 [Example 406, 7-Cyclobutoxy-2-(1-methyl-2-oxabicyclo[2.1.1]hexan-4-yl)-N-(pyrazolo[1,5-a]pyrimidin-3-yl)imidazo[1,2-a]pyridine-6-carboxamide] was tested, and the IC50 was 0.0003 µM. Work on CC(C)Oc1nc2nc([C@@]34CC[C@@](C)(C3)OC4)cn2cc1C(=O)Nc1cccn(C)c1=O (single isomer, unassigned) [Example 652] yielded an IC50 of 0.0005 µM.

Same assay, conditions: IRAK4 Biochemical Assay (1 mM ATP, 2 h) IC50 (μM), 1 mM ATP, 2 h, 100 pM IRAK4
In the case of CC(C)Oc1cc2nc(C34COC(C)(C3)C4)cn2cc1C(=O)Nc1ccn(C2CCCC2)n1 [Example 315, N-(1-cyclopentyl-1H-pyrazol-3-yl)-7-isopropoxy-2-(1-methyl-2-oxabicyclo[2.1.1]hexan-4-yl)imidazo[1,2-a]pyridine-6-carboxamide trifluoroacetate], the IC50 is reported as 0.0045 µM. For CC12CC(c3cn4cc(C(=O)Nc5cccn(C(F)F)c5=O)c(OCC5(F)CCOCC5)cc4n3)(CO1)C2 [Example 456, N-(1-(difluoromethyl)-2-oxo-1,2-dihydropyridin-3-yl)-7-((4-fluorotetrahydro-2H-pyran-4-yl)methoxy)-2-(1-methyl-2-oxabicyclo[2.1.1]hexan-4-yl)imidazo[1,2-a]pyridine-6-carboxamide], the IC50 was 0.0071 µM. CC12CC(c3cn4cc(C(=O)Nc5cccc(C(F)F)n5)c(OC(F)F)cc4n3)(CO1)C2 [Example 333, 7-(Difluoromethoxy)-N-(6-(difluoromethyl)pyridin-2-yl)-2-(1-methyl-2-oxabicyclo[2.1.1]hexan-4-yl)imidazo[1,2-a]pyridine-6-carboxamide trifluoroacetate] was tested, and the IC50 was 0.0052 µM. Work on CN1CCC(Oc2cc3nc(C4CC4)cn3cc2C(=O)Nc2cccc(C(F)F)n2)C1=O (stereo not shown) [Example 469, 2-Cyclopropyl-N-(6-(difluoromethyl)pyridin-2-yl)-7-((1-methyl-2-oxopyrrolidin-3-yl)oxy)imidazo[1,2-a]pyridine-6-carboxamide] yielded an IC50 of 0.0412 µM. In the case of CCOc1cc2nc(C3CN(CC(F)F)C3)cn2cc1C(=O)Nc1cccc(C(F)F)n1 [Example 90], the IC50 is reported as 0.0015 µM. In the case of CCc1cccc(NC(=O)c2cn3cc(C4CCOCC4)nc3cc2OC)n1 [Example 59], the IC50 is reported as 0.0137 µM. For COc1cccc(NC(=O)c2cn3cc(C45COC(C)(C4)C5)nc3cc2OC(C)C)n1 [Example 97, 7-Isopropoxy-N-(6-methoxypyridin-2-yl)-2-(1-methyl-2-oxabicyclo[2.1.1]hexan-4-yl)imidazo[1,2-a]pyridine-6-carboxamide], the IC50 was 0.0003 µM. CC(C)Oc1cc2nc(C34COC(C)(C3)C4)cn2cc1C(=O)Nc1cnc2cccnn12 [Example 321, N-(imidazo[1,2-b]pyridazin-3-yl)-7-isopropoxy-2-(1-methyl-2-oxabicyclo[2.1.1]hexan-4-yl)imidazo[1,2-a]pyridine-6-carboxamide 2,2,2-trifluoroacetate] was tested, and the IC50 was 0.0003 µM.
